{"source": "ChEMBL document CHEMBL1139396", "about": "“Novel N9-arenethenyl purines as potent dual Src/Abl tyrosine kinase inhibitors” (Bioorg Med Chem Lett, 2008)"}
{"system": "not listed separately", "assay": "Cytotoxicity against mouse BA/F3 cells transfected with wild-type Bcr-Abl", "conditions": "BaF3", "units": {"IC50": "nM"}}
{"compound": "CP(C)(=O)c1ccc(Nc2ncnc3c2ncn3/C=C/c2cccc3[nH]ccc23)cc1", "IC50": 1540}
{"compound": "Cc1cccc(C)c1/C=C/n1cnc2c(Nc3ccc(P(C)(C)=O)cc3)nc(CCC#N)nc21", "IC50": 38.6}
{"compound": "Cc1cccc(C)c1/C=C/n1cnc2c(Nc3ccc(P(C)(C)=O)cc3)nc(N(C)C)nc21", "IC50": 269}
{"compound": "CP(C)(=O)c1ccc(Nc2ncnc3c2ncn3/C=C/c2ccccc2Cl)cc1", "IC50": 2010}
{"compound": "Cc1cccc(C)c1/C=C/n1cnc2c(Nc3ccc(P(C)(C)=O)cc3)nc(N3CCCC3)nc21", "IC50": 123}
{"compound": "Cc1cccc(C)c1/C=C/n1cnc2c(Nc3ccc(P(C)(C)=O)cc3)nc(OC(C)C)nc21", "IC50": 34.8}
{"compound": "Cc1cccc(C)c1/C=C/n1cnc2c(Nc3ccc(P(C)(C)=O)cc3)nc(C3CCN(C)CC3)nc21", "IC50": 285}
{"system": "K562", "assay": "Cytotoxicity against human K562 cells transfected with wild-type Bcr-Abl", "conditions": "not given", "units": {"IC50": "nM"}}
{"compound": "Cc1cccc(C)c1/C=C/n1cnc2c(Nc3ccc(P(C)(C)=O)cc3)nc(C3CCCC3)nc21", "IC50": 224}
{"compound": "CCCP(=O)(CCC)c1ccc(Nc2nc(C(C)C)nc3c2ncn3/C=C\\c2ccccc2)cc1", "IC50": "> 1000"}
{"compound": "CCCP(=O)(CCC)c1ccc(Nc2nc(C(C)C)nc3c2ncn3/C=C\\c2c(C)cccc2C)cc1", "IC50": 964}
{"compound": "CCCP(=O)(CCC)c1ccc(Nc2nc(C(C)C)nc3c2ncn3/C=C/c2ccccc2)cc1", "IC50": "> 1000"}
{"compound": "CP(C)(=O)c1ccc(Nc2ncnc3c2ncn3/C=C/c2cccc3[nH]ccc23)cc1", "IC50": 954}
{"compound": "Cc1cccc(C)c1/C=C/n1cnc2c(Nc3ccc(P(C)(C)=O)cc3)nc(-n3ccnc3)nc21", "IC50": 53.7}
{"compound": "Cc1cccc(C)c1/C=C/n1cnc2c(Nc3ccc(P(C)(C)=O)cc3)nc(CCC#N)nc21", "IC50": 15.8}
{"compound": "Cc1cccc(C)c1/C=C/n1cnc2c(Nc3ccc(P(C)(C)=O)cc3)nc(N(C)C)nc21", "IC50": 217}
{"compound": "CP(C)(=O)c1ccc(Nc2ncnc3c2ncn3/C=C/c2ccccc2Cl)cc1", "IC50": 1390}
{"compound": "Cc1cccc(C)c1/C=C/n1cnc2c(Nc3ccc(P(C)(C)=O)cc3)nc(N3CCCC3)nc21", "IC50": 89.1}
{"compound": "Cc1cccc(C)c1/C=C/n1cnc2c(Nc3ccc(P(C)(C)=O)cc3)nc(OC(C)C)nc21", "IC50": 40.6}
{"compound": "Cc1cccc(C)c1/C=C/n1cnc2c(Nc3ccc(P(C)(C)=O)cc3)nc(C3CCN(C)CC3)nc21", "IC50": 28}
{"target": "Tyrosine-protein kinase ABL1 (Homo sapiens, UniProt P00519)", "sequence (P00519 whole entry)": "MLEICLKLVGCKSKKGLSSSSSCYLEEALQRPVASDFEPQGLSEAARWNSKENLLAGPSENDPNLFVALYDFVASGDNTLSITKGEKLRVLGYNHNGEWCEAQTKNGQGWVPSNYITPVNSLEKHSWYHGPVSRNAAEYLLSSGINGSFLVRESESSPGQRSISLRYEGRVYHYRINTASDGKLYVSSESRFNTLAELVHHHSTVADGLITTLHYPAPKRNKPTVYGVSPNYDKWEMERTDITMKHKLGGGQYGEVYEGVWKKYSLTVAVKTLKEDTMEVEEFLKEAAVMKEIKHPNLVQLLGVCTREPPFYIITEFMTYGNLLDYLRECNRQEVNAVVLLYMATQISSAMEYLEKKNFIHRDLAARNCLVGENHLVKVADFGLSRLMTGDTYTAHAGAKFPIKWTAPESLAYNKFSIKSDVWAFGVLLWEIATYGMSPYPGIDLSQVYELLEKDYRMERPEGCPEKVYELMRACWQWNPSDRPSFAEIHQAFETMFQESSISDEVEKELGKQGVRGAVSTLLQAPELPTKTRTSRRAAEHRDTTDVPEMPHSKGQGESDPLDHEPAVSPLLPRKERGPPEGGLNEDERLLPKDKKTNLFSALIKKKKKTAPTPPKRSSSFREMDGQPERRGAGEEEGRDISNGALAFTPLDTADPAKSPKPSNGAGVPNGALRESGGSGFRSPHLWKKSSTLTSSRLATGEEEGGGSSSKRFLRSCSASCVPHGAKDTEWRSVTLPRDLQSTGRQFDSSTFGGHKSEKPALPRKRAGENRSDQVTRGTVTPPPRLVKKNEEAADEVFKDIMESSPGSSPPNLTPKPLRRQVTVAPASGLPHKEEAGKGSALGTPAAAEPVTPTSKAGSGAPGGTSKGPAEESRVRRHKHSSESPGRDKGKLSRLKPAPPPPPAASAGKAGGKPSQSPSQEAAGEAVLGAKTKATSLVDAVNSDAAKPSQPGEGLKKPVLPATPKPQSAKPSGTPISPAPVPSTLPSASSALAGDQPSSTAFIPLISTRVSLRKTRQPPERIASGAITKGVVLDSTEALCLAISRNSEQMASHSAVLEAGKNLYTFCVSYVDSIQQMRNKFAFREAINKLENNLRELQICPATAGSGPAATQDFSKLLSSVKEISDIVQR", "conditions": "not given", "units": {"IC50": "nM"}}
{"compound": "Cc1cccc(C)c1/C=C/n1cnc2c(Nc3ccc(P(C)(C)=O)cc3)nc(-n3ccnc3)nc21", "IC50": 1.63}
{"compound": "Cc1cccc(C)c1/C=C/n1cnc2c(Nc3ccc(P(C)(C)=O)cc3)nc(CCC#N)nc21", "IC50": "< 0.46"}
{"compound": "Cc1cccc(C)c1/C=C/n1cnc2c(Nc3ccc(P(C)(C)=O)cc3)nc(OC(C)C)nc21", "IC50": 7.32}
{"compound": "Cc1cccc(C)c1/C=C/n1cnc2c(Nc3ccc(P(C)(C)=O)cc3)nc(C3CCN(C)CC3)nc21", "IC50": "< 0.46"}
{"target": "Proto-oncogene tyrosine-protein kinase Src (Homo sapiens, UniProt P12931)", "sequence (P12931 2-536 limits assumed)": "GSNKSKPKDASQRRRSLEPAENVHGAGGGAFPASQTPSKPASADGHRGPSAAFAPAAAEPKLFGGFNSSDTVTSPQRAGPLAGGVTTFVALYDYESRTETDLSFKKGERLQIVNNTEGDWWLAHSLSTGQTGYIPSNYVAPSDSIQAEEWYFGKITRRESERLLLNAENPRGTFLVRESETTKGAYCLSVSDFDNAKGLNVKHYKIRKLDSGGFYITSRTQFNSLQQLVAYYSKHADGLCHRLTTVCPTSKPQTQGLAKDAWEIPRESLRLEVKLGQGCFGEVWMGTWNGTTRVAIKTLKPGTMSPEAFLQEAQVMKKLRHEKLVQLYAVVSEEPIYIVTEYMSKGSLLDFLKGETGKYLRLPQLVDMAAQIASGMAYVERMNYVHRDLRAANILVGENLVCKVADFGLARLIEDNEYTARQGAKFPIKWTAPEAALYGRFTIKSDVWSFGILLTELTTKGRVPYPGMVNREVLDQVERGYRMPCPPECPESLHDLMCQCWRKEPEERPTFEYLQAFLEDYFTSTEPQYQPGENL", "assay": "Inhibition of human Src kinase by TR-FRET assay", "conditions": "not given", "units": {"IC50": "nM"}}
{"compound": "Cc1cccc(C)c1/C=C/n1cnc2c(Nc3ccc(P(C)(C)=O)cc3)nc(-n3ccnc3)nc21", "IC50": "< 0.46"}
{"compound": "Cc1cccc(C)c1/C=C/n1cnc2c(Nc3ccc(P(C)(C)=O)cc3)nc(CCC#N)nc21", "IC50": "< 0.46"}
{"compound": "Cc1cccc(C)c1/C=C/n1cnc2c(Nc3ccc(P(C)(C)=O)cc3)nc(OC(C)C)nc21", "IC50": "< 0.46"}
{"compound": "Cc1cccc(C)c1/C=C/n1cnc2c(Nc3ccc(P(C)(C)=O)cc3)nc(C3CCN(C)CC3)nc21", "IC50": "< 0.46"}
